According to patent US11161856B2 (H. Lundbeck A/S, priority 2017, dated 2021):

Tests used:
MAGL [1] = target: T1, MAGL (Mus musculus, UniProt O35678); test: Mouse brain proteomes from inhibitor treated mice (oral gavage, brain proteome ABPP 4 h after administration); type: in vivo; conditions: mouse brain proteome 4 h after administration
T1 construct: from tissue; host or cells: brain of wild-type C57Bl/6J mice dosed by oral gavage
T1 sequence (O35678 1-303): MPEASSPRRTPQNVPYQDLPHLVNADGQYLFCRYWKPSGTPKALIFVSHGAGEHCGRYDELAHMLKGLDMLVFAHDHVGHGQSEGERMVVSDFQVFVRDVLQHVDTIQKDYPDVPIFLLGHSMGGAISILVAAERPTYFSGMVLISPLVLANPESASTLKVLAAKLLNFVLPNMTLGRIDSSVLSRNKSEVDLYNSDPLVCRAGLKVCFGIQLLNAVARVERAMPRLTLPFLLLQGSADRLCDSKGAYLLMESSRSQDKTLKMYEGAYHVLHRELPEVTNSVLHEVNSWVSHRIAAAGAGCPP
Method: Preparation of Mouse Brain Proteomes from Inhibitor Treated Mice.
Inhibitors were administered to wild-type C57B1/6J by oral gavage in a vehicle of polyethylene glycol. Each animal was sacrificed 4 h following administration and brain proteomes were prepared and analyzed according to previously established methods (See Niphakis, M. J., et al. (2011) ACS Chem. Neurosci. and Long, J. Z., et al. Nat. Chem. Biol. 5:37-44).

MGLL = target: T2, MGLL (Mus musculus, UniProt O35678); test: In vitro competitive activity-based protein profiling, mouse brain proteome (MGLL); type: biochemical; conditions: for % Inh MGLL Brain (Mouse, μM): concentration not given (μM)
T2 construct: Brain; from tissue; host or cells: mouse brain proteome
T2 sequence (O35678 1-303): T1 sequence (O35678 1-303)

ABHD6 = target: T3, ABHD6 (Mus musculus, UniProt Q8R2Y0); test: In vitro competitive activity-based protein profiling, mouse brain proteome (ABHD6); type: biochemical; conditions: for % Inh ABHD6 Brain (Mouse, μM): mouse brain proteome, concentration not given (μM)
T3 construct: Brain; from tissue; host or cells: mouse brain proteome
T3 sequence (Q8R2Y0 1-336): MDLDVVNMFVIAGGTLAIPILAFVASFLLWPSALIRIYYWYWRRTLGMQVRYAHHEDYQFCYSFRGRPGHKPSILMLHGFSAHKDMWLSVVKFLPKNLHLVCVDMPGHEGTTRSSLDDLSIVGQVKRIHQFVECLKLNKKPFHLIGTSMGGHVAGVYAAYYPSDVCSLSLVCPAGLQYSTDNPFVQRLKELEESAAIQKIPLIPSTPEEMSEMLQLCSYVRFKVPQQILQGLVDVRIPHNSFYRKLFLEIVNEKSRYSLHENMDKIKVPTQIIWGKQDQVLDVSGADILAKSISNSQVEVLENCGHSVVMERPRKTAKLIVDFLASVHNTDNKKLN
Method: [The source words this procedure for another target and reports this target under the same test.] In Vitro Competitive Activity-Based Protein Profiling.
Proteomes (human prefrontal cortex or cell membrane fractions) (50 μL, 1.0 mg/mL total protein concentration) were preincubated with varying concentrations of inhibitors at 37° C. After 30 min, FP-Rh or HT-01 (1.0 μL, 50 μM in DMSO) was added and the mixture was incubated for another 30 min at room temperature. Reactions were quenched with SDS loading buffer (15 μL-4×) and run on SDS-PAGE.

MAGL [2] = target: T4, MAGL (Homo sapiens, UniProt Q99685); test: In vitro competitive activity-based protein profiling (FP-Rh or HT-01 probe, gel-based); type: biochemical; set-up: IC50 MGLL PC3 (Human, μM) / IC50 MGLL PFC (Human, μM): scale not given here; conditions: PC3 cell proteome
T4 construct: Proteomes (human prefrontal cortex or cell membrane fractions); from tissue
T4 sequence (Q99685 1-303): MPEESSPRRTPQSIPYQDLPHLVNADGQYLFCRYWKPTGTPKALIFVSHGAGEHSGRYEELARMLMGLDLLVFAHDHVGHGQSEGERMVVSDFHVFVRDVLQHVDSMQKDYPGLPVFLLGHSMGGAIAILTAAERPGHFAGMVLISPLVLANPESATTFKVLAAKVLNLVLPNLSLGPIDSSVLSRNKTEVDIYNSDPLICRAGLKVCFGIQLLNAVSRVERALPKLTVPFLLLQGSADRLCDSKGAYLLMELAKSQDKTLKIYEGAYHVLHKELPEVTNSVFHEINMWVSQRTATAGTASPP
Procedure, shortened: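 Human prefrontal cortex or cell membrane proteomes (1.0 mg/mL total protein) were preincubated with varying inhibitor concentrations for 30 min at 37° C. FP-Rh or HT-01 probe (50 μM DMSO stock) was then added for 30 min at room temperature, and samples were quenched in SDS loading buffer and resolved by SDS-PAGE.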

SMILES | % Inh 5 mg/kg MGLL (Mouse) (MAGL [1]) | IC50 (MGLL) | % Inh MGLL Brain (Mouse, μM) (MGLL) | % Inh ABHD6 Brain (Mouse, μM) (ABHD6) | IC50 (ABHD6; mouse proteome) | IC50 MGLL PC3 (Human, μM) (MAGL [2]) | % Inh MGLL PC3 (Human, μM) (MAGL [2]; concentration not given (μM))
CS(=O)(=O)N1CCC2(CC1)CN(c1cc(C(F)(F)F)ccc1CN1CCN(C(=O)OC(C(F)(F)F)C(F)(F)F)CC1)C2 [Example 207, 1,1,1,3,3,3-Hexafluoropropan-2-yl 4-(2-(7-(methylsulfonyl)-2,7-diazaspiro[3,5]nonan-2-yl)-4-(trifluoromethyl)benzyl) piperazine-1-carboxylate] | ### (### is ≥75%) | < 100 nM | ### (### is ≥75%) | ## (## is between 25 and 75%) | > 1000 nM |  | 
CC(C)(C#Cc1cc(C(F)(F)F)ccc1CN1CCCC12CCN(C(=O)OC(C(F)(F)F)C(F)(F)F)CC2)C(=O)O [Example 5, 4-(2-((8-(((1,1,1,3,3,3-Hexafluoropropan-2-yl)oxy)carbonyl)-1,8-diazaspiro[4.5]decan-1-yl)methyl)-5-(trifluoromethyl)phenyl)-2,2-dimethylbut-3-ynoic acid] |  |  | ### (### is ≥75%) | # (# is ≤25%) |  | * * * | ### (### is ≥75%)
